In publication PMC10092844, “Inhibition profile of trifludimoxazin towards PPO2 target site mutations” (Pest Management Science, 2022):
Where a chain is given by its changes, count along the chain named. Read-outs that look alike come from different tables or passages of the source.

How the values were obtained:
[1] = target: T1, PPO2 R128E ΔG210 (Amaranthus tuberculatus, UniProt Q0NZW9, DEL210/R128E); test: biochemical; format: biochemical
T1 sequence (Q0NZW9 with tags, fused parts or gaps R128E/DEL210): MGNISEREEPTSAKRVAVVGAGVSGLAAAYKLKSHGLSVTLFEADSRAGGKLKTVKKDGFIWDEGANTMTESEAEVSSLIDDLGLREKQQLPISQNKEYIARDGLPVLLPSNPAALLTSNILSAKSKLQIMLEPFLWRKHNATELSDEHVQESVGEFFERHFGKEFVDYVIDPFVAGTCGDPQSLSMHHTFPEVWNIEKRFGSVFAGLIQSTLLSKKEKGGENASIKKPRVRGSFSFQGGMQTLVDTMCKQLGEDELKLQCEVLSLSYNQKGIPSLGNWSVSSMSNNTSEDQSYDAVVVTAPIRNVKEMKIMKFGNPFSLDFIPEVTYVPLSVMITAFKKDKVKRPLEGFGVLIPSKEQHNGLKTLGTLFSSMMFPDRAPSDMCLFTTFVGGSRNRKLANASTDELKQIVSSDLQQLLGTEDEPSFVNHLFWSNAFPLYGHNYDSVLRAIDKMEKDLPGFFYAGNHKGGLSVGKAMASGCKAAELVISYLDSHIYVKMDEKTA

[2] = target: R128(X) ΔG210 double-mutant enzymes; format: biochemical, Amaranthus tuberculatus
[3] = target: T2, PPO2 R128I ΔG210 (Amaranthus tuberculatus, UniProt Q0NZW9, DEL210-210/R128I); test: biochemical; format: biochemical
T2 sequence (Q0NZW9 with tags, fused parts or gaps R128I/DEL210-210): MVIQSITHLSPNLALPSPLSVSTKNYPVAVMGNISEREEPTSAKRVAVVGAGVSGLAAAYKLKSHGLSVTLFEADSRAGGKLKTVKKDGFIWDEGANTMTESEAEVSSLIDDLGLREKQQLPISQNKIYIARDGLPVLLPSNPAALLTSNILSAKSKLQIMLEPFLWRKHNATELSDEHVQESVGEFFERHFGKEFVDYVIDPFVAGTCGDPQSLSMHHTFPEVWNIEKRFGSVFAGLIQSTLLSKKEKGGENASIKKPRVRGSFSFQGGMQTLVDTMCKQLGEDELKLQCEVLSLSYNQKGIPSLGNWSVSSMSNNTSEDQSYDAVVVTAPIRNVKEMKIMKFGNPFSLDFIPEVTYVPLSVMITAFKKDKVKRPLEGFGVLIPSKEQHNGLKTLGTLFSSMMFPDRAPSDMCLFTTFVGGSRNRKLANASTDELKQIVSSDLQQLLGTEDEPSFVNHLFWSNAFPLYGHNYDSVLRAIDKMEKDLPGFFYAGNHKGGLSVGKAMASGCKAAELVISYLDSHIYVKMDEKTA

[4] = target: T3, PPO2 G399A (Amaranthus tuberculatus, UniProt Q0NZW9, G398A); test: biochemical; format: biochemical
T3 sequence (Q0NZW9 31-534 G398A): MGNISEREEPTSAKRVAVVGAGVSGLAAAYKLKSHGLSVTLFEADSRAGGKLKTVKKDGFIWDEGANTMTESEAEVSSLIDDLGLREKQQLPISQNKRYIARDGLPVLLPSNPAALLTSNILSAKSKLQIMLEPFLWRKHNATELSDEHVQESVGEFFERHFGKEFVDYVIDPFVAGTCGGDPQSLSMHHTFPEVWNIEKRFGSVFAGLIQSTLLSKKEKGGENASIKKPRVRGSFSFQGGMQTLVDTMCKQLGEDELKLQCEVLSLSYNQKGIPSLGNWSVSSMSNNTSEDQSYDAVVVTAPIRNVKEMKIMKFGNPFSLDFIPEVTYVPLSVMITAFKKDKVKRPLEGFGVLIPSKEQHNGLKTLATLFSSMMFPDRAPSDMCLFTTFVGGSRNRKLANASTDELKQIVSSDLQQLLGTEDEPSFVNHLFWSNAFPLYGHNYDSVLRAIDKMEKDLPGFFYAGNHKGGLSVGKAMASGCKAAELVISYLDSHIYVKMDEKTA

[5] = target: T4, PPO2 R128N ΔG210 in Escherichia coli hemG (Amaranthus tuberculatus, UniProt Q0NZW9, DEL210-210/R128N, cells depend on it); format: cell-based; conditions: read-out: IC50 (E. coli hemG growth)
T4 sequence (Q0NZW9 with tags, fused parts or gaps R128N/DEL210-210): T1 sequence (Q0NZW9 with tags, fused parts or gaps R128E/DEL210) with E98N

[6] = target: T5, PPO2 R128H ΔG210 in Escherichia coli hemG (Amaranthus tuberculatus, UniProt Q0NZW9, DEL210/R128H, cells depend on it); format: cell-based; conditions: read-out: IC50 (E. coli hemG growth)
T5 sequence (Q0NZW9 with tags, fused parts or gaps R128H/DEL210): T2 sequence (Q0NZW9 with tags, fused parts or gaps R128I/DEL210-210) with I128H

[7] = read-out: IC50 (over R128(X) ΔG210 mutants)

Row | SMILES | IC50 [1] [nM] | IC50 [2, 7] [nM] | IC50 [3] [nM] | IC50 [4] [nM] | IC50 ([2]; read-out: IC50 values) [nM] | IC50 ([2]; read-out: IC50 values (range over variants)) [nM] | IC50 [5] [nM] | IC50 [6] [nM] | Resistance factor [1] | Resistance factor [3]
1 | CS(=O)(=O)NC(=O)c1cc(Oc2ccc(C(F)(F)F)cc2Cl)ccc1[N+](=O)[O-] [Fomesafen, fomesafen] | > 10000 | < 10000 | > 10000 | > 10000 |  |  |  |  |  | 
2 | CCOC(=O)C(C)OC(=O)c1cc(Oc2ccc(C(F)(F)F)cc2Cl)ccc1[N+](=O)[O-] (stereo not shown) [Lactofen, lactofen] | 649 |  | 1950 | 1580 | > 10000 | 100 to 1000 | > 10000 | > 10000 |  | 
3 | CC(C)N(C)S(=O)(=O)NC(=O)c1cc(-n2c(=O)cc(C(F)(F)F)n(C)c2=O)c(F)cc1Cl [Saflufenacil, saflufenacil] | > 10000 | < 10000 | > 10000 | 627 |  |  | > 10000 | > 10000 |  | 
4 | C#CCN1C(=O)C(F)(F)Oc2cc(F)c(-n3c(=O)n(C)c(=S)n(C)c3=O)cc21 [Trifludimoxazin, trifludimoxazin] | 8.61 | 1 to 100 | 99.3 | 1.17 |  |  | 9.87 | 90 | 35 | 405
